Results reported in the NIST ThermoML archive (doi:10.1016/j.jct.2016.12.020).

Test: excess molar enthalpy (molar enthalpy of mixing); xn = mol fraction of the nth substance listed
Conditions: 100 kPa, Liquid, Calvet calorimetry

[Au] [gold] + [Ga]
excess molar enthalpy [kcal/mol]
Conditions | 1223 K | 1323 K
x1 = 0.03042 | -0.3007 | –
x1 = 0.03979 | – | -0.4015
x1 = 0.0642 | -0.6272 | –
x1 = 0.07894 | – | -0.7875
x1 = 0.09685 | -0.9732 | –
x1 = 0.116 | – | -1.149
x1 = 0.1281 | -1.308 | –
x1 = 0.1512 | – | -1.492
x1 = 0.1606 | -1.622 | –
x1 = 0.1843 | – | -1.794
x1 = 0.1915 | -1.907 | –
x1 = 0.2172 | – | -2.085
x1 = 0.2205 | -2.139 | –
x1 = 0.2492 | -2.37 | -2.366
x1 = 0.2762 | -2.589 | –
x1 = 0.2785 | – | -2.596
x1 = 0.3018 | -2.787 | –
x1 = 0.3074 | – | -2.819
x1 = 0.3274 | -2.98 | –
x1 = 0.3345 | – | -3.014
x1 = 0.3516 | -3.153 | –
x1 = 0.3597 | – | -3.179
x1 = 0.3741 | -3.296 | –
x1 = 0.3836 | – | -3.319
x1 = 0.3958 | -3.404 | –
x1 = 0.4061 | – | -3.431
x1 = 0.4164 | -3.509 | –
x1 = 0.4283 | – | -3.53
x1 = 0.4363 | -3.587 | –
x1 = 0.449 | – | -3.615
x1 = 0.4553 | -3.665 | –
x1 = 0.4692 | – | -3.695
x1 = 0.4737 | -3.733 | –
x1 = 0.4871 | -3.783 | –
x1 = 0.4882 | – | -3.752
x1 = 0.4991 | – | -3.797
x1 = 0.5003 | -3.814 | –
x1 = 0.5096 | – | -3.825
x1 = 0.5139 | -3.826 | –
x1 = 0.5203 | – | -3.85
x1 = 0.527 | -3.839 | –
x1 = 0.5307 | – | -3.87
x1 = 0.5395 | -3.851 | –
x1 = 0.5412 | – | -3.88
x1 = 0.5514 | – | -3.89
x1 = 0.5515 | -3.86 | –
x1 = 0.5621 | – | -3.89
x1 = 0.5631 | -3.88 | –
x1 = 0.5727 | – | -3.9
x1 = 0.5743 | -3.88 | –
x1 = 0.5829 | – | -3.9
x1 = 0.585 | -3.88 | –
x1 = 0.5927 | – | -3.89
x1 = 0.5953 | -3.88 | –
x1 = 0.6028 | – | -3.88
x1 = 0.6053 | -3.88 | –
x1 = 0.6129 | – | -3.87
x1 = 0.6147 | -3.88 | –
x1 = 0.6231 | – | -3.84
x1 = 0.6239 | -3.87 | –
x1 = 0.6306 | -3.86 | –
x1 = 0.637 | -3.85 | –
x1 = 0.6431 | -3.83 | –

[Ag] [silver] + [Ga]
Conditions | excess molar enthalpy [kcal/mol]
1223 K, x1 = 0.04915 | 0.0514
1223 K, x1 = 0.0956 | 0.0619
1223 K, x1 = 0.1383 | 0.0729
1223 K, x1 = 0.1792 | 0.0681
1223 K, x1 = 0.2178 | 0.0629
1223 K, x1 = 0.2552 | 0.0301
1223 K, x1 = 0.2905 | -0.00215
1223 K, x1 = 0.3228 | -0.0502
1223 K, x1 = 0.3528 | -0.0958
1223 K, x1 = 0.3809 | -0.14
1223 K, x1 = 0.4081 | -0.193
1223 K, x1 = 0.4336 | -0.252
1223 K, x1 = 0.4572 | -0.308
1223 K, x1 = 0.4789 | -0.346
1223 K, x1 = 0.4992 | -0.389
1223 K, x1 = 0.5189 | -0.447
1223 K, x1 = 0.5372 | -0.494
1223 K, x1 = 0.5548 | -0.535
1223 K, x1 = 0.5712 | -0.574
1323 K, x1 = 0.05283 | 0.0533
1323 K, x1 = 0.1006 | 0.0992
1323 K, x1 = 0.1464 | 0.112
1323 K, x1 = 0.1894 | 0.107
1323 K, x1 = 0.2288 | 0.0978
1323 K, x1 = 0.2649 | 0.0846
1323 K, x1 = 0.2996 | 0.0519
1323 K, x1 = 0.3321 | 0.00598
1323 K, x1 = 0.3634 | -0.0519
1323 K, x1 = 0.3921 | -0.0949
1323 K, x1 = 0.4189 | -0.144
1323 K, x1 = 0.4443 | -0.198
1323 K, x1 = 0.4687 | -0.227
1323 K, x1 = 0.4964 | -0.274
1323 K, x1 = 0.5168 | -0.312
1323 K, x1 = 0.5359 | -0.344
1323 K, x1 = 0.5558 | -0.386
